Data set [1] concerns the target T1, MaPylRS (Methanomethylophilus alvi, UniProt M9SC49, N166A/V168A).
T1 construct: gene MMALV_11280; pET32a, E. coli BL21-Gold(DE3)pLysS, Ni-NTA; for crystals 6xHis-thrombin site N-terminal, tag cut; dimer in crystal
Description: X-ray crystal structure, […] Å. The format is binding. The following applies: ternary complex with AMP-PNP; active site, two orientations (chains A and B).

Data set [2] deals with the molecule itself. Description: crystal structure; MaFRSA with 100 mM m-CF3-2-BMA and 10 mM AMP-PNP, hanging-drop vapour diffusion at 18 °C, 10 mM Tris-HCl pH 7.4, 26% PEG 3,350; space group I4, two copies in the asymmetric unit, 1.8 Å.

Turning to `O=C(O)C(Cc1cccc(C(F)(F)F)c1)C(=O)O` [compound 18, m-CF3-2-BMA], the “X-ray crystal structure, 1.8 Å” value in data set [1] is “we solved the crystal structure of MaFRSA bound to both m-CF3-2-BMA and the non-hydrolysable ATP analogue”.

B1: MaFRSA (Methanomethylophilus alvus pyrrolysyl-tRNA synthetase, MaPylRS, N166A V168A) (enzyme)
chain: MTVKYTDAQIQRLREYGNGTYEQKVFEDLASRDAAFSKEMSVASTDNEKKIKGMIANPSRHGLTQLMNDIADALVAEGFIEVRTPIFISKDALARMTITEDKPLFKQVFWIDEKRALRPMLAPNLYSVMRDLRDHTDGPVKIFEMGSCFRKESHSGMHLEEFTMLALADMGPRGDATEVLKNYISVVMKAAGLPDYDLVQEESDVYKETIDVEINGQEVCSAAVGPHYLDAAHDVHEPWSGAGFGLERLLTIREKYSTVKKGGASISYLNGAKIN
notes: Pyrrolysyl-tRNA synthetase (PylRS) of Methanomethylophilus alvus with N166A and V168A; construct GSS linker-6xHis-SSG linker-thrombin site-MaFRSA from pET32a-6xHis-thrombin-MaFRSA, tag removed with thrombin; Crystallised with m-CF3-2-benzylmalonate and AMP-PNP; source: E. coli BL21-Gold (DE3)pLysS, purified (TALON, thrombin cleavage, Superdex 200); not shown: 6xHis, N-terminal, cleaved
In the case of B1, the binding result in data set [2] was “binds”.

(Values after PMC10322718, “Expanding the substrate scope of pyrrolysyl-transfer RNA synthetase enzymes to include non-α-amino acids in vitro and in vivo” (Nature Chemistry, 2023).)
